Reference: patent US20260108554A1, “METHODS FOR REPROGRAMMING AND GENE EDITING CELLS” (Factor Bioscience Inc., priority 2022, published 2026)
Several values for one entry are separate records, joined by “and”; a condition that tells them apart may be missing. Identical values can stand only once.

How the values were obtained:
Type in all cases: cell-based, human
AAVS1 [1] = test: 300 base insertion in fibroblasts (SfoI cut band)
Procedure: In the gel, Lane 1: 100 base ladder; Lane 2: Ultraslice and SfoI 300 base insertion dsDNA repair template (Untreated); and Lane 3: Ultraslice and SfoI 300 base insertion dsDNA repair template (NU7441 9 uM 72 h treated).

fibroblasts = test: cell cycle S/G2 population after Resveratrol treatment
AAVS1 [2] = test: 1 kb insertion in iPSCs (AAVS1 sPCR amplicon gel); settings: iPSC
Procedure: (§1) • 1. Fibroblasts were cultured using DMEM+10% FBS media in 37° Celsius with 5% O2 and 5% CO2 • 2. iPSC was cultured using mTeSR+Y27632 in 37° Celsius with 5% O2 and 5% CO2
(§2) • 3. After detaching cells with TrypleE and DTI, standard electroporation protocol was performed • 4. 0.8 ug˜1 ug of AAVS1 Ultraslice RNA and 600 ng of SfoI ssDNA repair template was delivered by electroporation. Ultraslice is a temperature sensitive gene-editing protein. The SfoI base change ssDNA repair template was a single stranded DNA piece with homology arms that is used as template for targeted DNA repair • 5. Fibroblasts were electroporated with 700 V, 20 ms, 1 pulse • 6. iPSCs were electroporated with 1100 V, 20 ms, 2 pulse)
In this experiment, the gel image is AAVS1 sPCR amplicon and not Sfol assay product. In the gel, Lane 1: 1000 base ladder; Lane 2: Ultraslice (Clean cap) and SfoI 1 kb insertion ssDNA repair template with 90b homology arm (Reverse transcription); and Lane 3: Ultraslice (Clean cap) and SfoI 1 kb insertion ssDNA repair template with 90b homology arm (Reverse transcription)—Resveratrol 25 uM 24 h incubation.
In this experiment, the gel image is AAVS1 sPCR amplicon and not Sfol assay product. […]

AAVS1 safe-harbor locus = test: SfoI assay (RFLP) of single-base editing in fibroblasts; settings: for increase in single-base editing / base change efficiency compared to untreated: application after transfection (25 μM 48 h post electroporation)
Procedure: The following general protocol was used for an Sfol assay to quantify insertion of repair template.
as §1, §2
• 7. Cells were detached 48 h˜72 h post electroporation and centrifuged to obtain cell pellets • 8. Perform genomic DNA extraction was performed using ZYMO Research Quick DNA Miniprep Kit (Catalog #: D3024)
• 9. AAVS1 surveyor PCR was performed using KAPA Hifi Hotstart PCR kit
• 10. 250 ng˜400 ng of AAVS1 PCR amplicon was obtained • 11. Amplicon was mixed with 2 μl of 10× Tango Buffer and 1 μl of EheI enzyme • 12. The mixture was incubated for 1 h in 37° C., followed by 20 mins at 65° C.
• 13. After diluting SfoI assay product with 40 ul of H2O, 20 ul of product was loaded to 2% Egel • 14. After running 2% Egel for 10 minutes, the gel was visualized and SfoI band intensity was quantified using Chemidoc and ImageJ software
Following treatment with resveratrol, fibroblasts was co-transfected with mRNA encoding a chromatin context-sensitive gene-editing protein targeting the AAVS1 safe-harbor locus and a single-stranded DNA repair template designed to introduce a SfoI restriction-enzyme site through a G-to-C mutation. Single-base editing efficiency was determined by restriction fragment length polymorphism (RFLP) analysis. […] In the gel, Lane 1: 100 base ladder; Lane 2: Ultraslice and SfoI base change ssDNA repair template (Resveratrol 25 μM 48 h pretreatment); Lane 3: Ultraslice and SfoI base change ssDNA repair template (Untreated); and Lane 4: Ultraslice and SfoI base change ssDNA repair template (Resveratrol 25 μM treatment 48 post electroporation).

iMSCs = test: electroporation of GFP repair template at AAVS1 with or without TTAGGG motif; settings: gene-editing at AAVS1 with GFP repair template
Procedure: FIG. 54 is a graphical illustration of the mechanism of action that the inclusion of the TTAGGG motif has on cells during electroporation. Cells were electroporated with and without the addition of a gene editing protein, UltraSlice. All electroporation's were performed using the Invitrogen NEON.
In this example, the TTAGGG motif was incorporated onto the 5′ end of a double stranded repair template or co-electroporated as a short oligo fragment in primary fibroblasts, iMSC, or iPSC.
The sequence of the TTAGGG motif used in this example was: […] (SEQ ID NO: 15). This motif was incorporated at the 5′ and 3′ end of dsODN via PCR amplification using the primer pair A151-AAVS1, Forward primer: […] (SEQ ID NO: 86) and A151-AAVS1, Reverse primer: […] (SEQ ID NO: 87). Control primers without the motif had the following sequences: AAVS1, Forward primer: […] (SEQ ID NO: 88) and AAVS1, Reverse primer: […] (SEQ ID NO: 89). The full sequence of the repair template that human primary fibroblasts, iMSCs and iPSCs was: AAVS1-h90-pJeT-GFP-SpA-h90. This repair template included a dsODN encoding a GFP reporter and containing an SfoI restriction site targeting the AAVS1 site with 90 base pairs of homology. The A151 sequence was added to the end of a double stranded repair template using PCR amplification. Repair templates were then purified using the Qiagen QIAquick PCR Purification kit prior to electroporation. […]

O=c1cc(N2CCOCC2)oc2c(-c3cccc4c3sc3ccccc34)cccc12 [NU7441]
gene-editing efficiency (gel) (AAVS1 [1]): increased gene-editing efficiency
increase in 300b insertion SfoI cut band intensity compared to untreated (AAVS1 [1]; fibroblasts, 9 uM 72 h incubation): 7 fold

Oc1ccc(C=Cc2cc(O)cc(O)c2)cc1 [Resveratrol]
increase in S/G2 population (fibroblasts; 25 uM for 48 h followed by 8 h incubation in DMEM/10% FBS): approximately 40%
increase of the S and G2-phase population (fibroblasts; treatment prior to transfection, compared to untreated cells): 2.3 fold
1 kb insertion rate (AAVS1 [2]; 25 uM for 24 h post electroporation, ssDNA repair template (Reverse transcription)): 8.7%
increase of 1 kb insertion (AAVS1 [2]; treatment after electroporation): 1.6 fold
increase in single-base editing / base change efficiency compared to untreated (AAVS1 safe-harbor locus): approximately 2.3 fold
increase in single-base editing / base change efficiency compared to untreated (AAVS1 safe-harbor locus; listed as resveratrol): > 2 fold
increase in HDR / base change efficiency compared to untreated (AAVS1 safe-harbor locus; fibroblasts, 25 μM 48 h pretreatment prior to transfection): 2.2 fold and 2 fold
gene-editing efficiency (gel) (AAVS1 safe-harbor locus; pretreated fibroblasts): increased gene-editing efficiency

TTAGGGTTAGGGTTAGGGTTAGGG [A151 ODN]
higher viability than when the motif was not present (iMSCs): approximately 50%
more GFP-positive cells than when the motif was not present (iMSCs): approximately 50%
